Reference: PubChem BioAssay (NCI)
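Cultured in 96-well plates, cells were exposed to test compound for 48 hours across five concentrations. GI50: concentration for 50% inhibition of growth. TGI marks complete inhibition of growth.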

Assays:
Assay in all cases: NCI anticancer screen, dose series, 48 h
786-0 renal = tested on: 786-0 renal
A498 renal = tested on: A498 renal
A549 NSCLC = tested on: A549 NSCLC
ACHN renal = tested on: ACHN renal
BT-549 breast = tested on: BT-549 breast
CAKI-1 renal = tested on: CAKI-1 renal
CCRF-CEM leukemia = tested on: CCRF-CEM leukemia
COLO 205 colon = tested on: COLO 205 colon
DU-145 prostate = tested on: DU-145 prostate
EKVX NSCLC = tested on: EKVX NSCLC
HCC-2998 colon = tested on: HCC-2998 colon
HCT-116 colon = tested on: HCT-116 colon
HCT-15 colon = tested on: HCT-15 colon
HL-60(TB) leukemia = tested on: HL-60(TB) leukemia
HOP-62 NSCLC = tested on: HOP-62 NSCLC
HOP-92 NSCLC = tested on: HOP-92 NSCLC
HS 578T breast = tested on: HS 578T breast
HT29 colon = tested on: HT29 colon
IGROV1 ovarian = tested on: IGROV1 ovarian
K-562 leukemia = tested on: K-562 leukemia
KM12 colon = tested on: KM12 colon
LOX IMVI melanoma = tested on: LOX IMVI melanoma
M14 melanoma = tested on: M14 melanoma
MALME-3M melanoma = tested on: MALME-3M melanoma
MCF7 breast = tested on: MCF7 breast
MDA-MB-231 breast = tested on: MDA-MB-231 breast
MDA-MB-435 = tested on: MDA-MB-435
NCI-H226 lung = tested on: NCI-H226 lung
NCI-H23 lung = tested on: NCI-H23 lung
NCI-H460 lung = tested on: NCI-H460 lung
NCI-H522 lung = tested on: NCI-H522 lung
NCI/ADR-RES ovarian = tested on: NCI/ADR-RES ovarian
OVCAR-3 ovarian = tested on: OVCAR-3 ovarian
OVCAR-4 ovarian = tested on: OVCAR-4 ovarian
OVCAR-5 ovarian = tested on: OVCAR-5 ovarian
OVCAR-8 ovarian = tested on: OVCAR-8 ovarian
PC-3 prostate = tested on: PC-3 prostate
RPMI-8226 leukemia = tested on: RPMI-8226 leukemia
RXF 393 renal = tested on: RXF 393 renal
SF-268 CNS = tested on: SF-268 CNS
SF-295 CNS = tested on: SF-295 CNS
SF-539 CNS = tested on: SF-539 CNS
SK-MEL-2 melanoma = tested on: SK-MEL-2 melanoma
SK-MEL-28 melanoma = tested on: SK-MEL-28 melanoma
SK-MEL-5 melanoma = tested on: SK-MEL-5 melanoma
SK-OV-3 ovarian = tested on: SK-OV-3 ovarian
SN12C renal = tested on: SN12C renal
SNB-19 CNS = tested on: SNB-19 CNS
SNB-75 CNS = tested on: SNB-75 CNS
SW-620 colon = tested on: SW-620 colon
T-47D breast = tested on: T-47D breast
TK-10 renal = tested on: TK-10 renal
U251 CNS = tested on: U251 CNS
UACC-257 melanoma = tested on: UACC-257 melanoma
UACC-62 melanoma = tested on: UACC-62 melanoma
UO-31 renal = tested on: UO-31 renal

## O=C(O)c1cc2c(c3ccsc13)-c1ccccc1CC2
786-0 renal
  GI50: 49.7 µM
  TGI: > 100 µM
A498 renal
  GI50: 19.2 µM
  TGI: 61.8 µM
A549 NSCLC
  GI50: 36.1 µM
  TGI: > 100 µM
ACHN renal
  GI50: 36.6 µM
  TGI: > 100 µM
BT-549 breast
  GI50: 41.1 µM
  TGI: > 100 µM
CAKI-1 renal
  GI50: 52 µM
  TGI: > 100 µM
CCRF-CEM leukemia
  GI50: 37.6 µM
  TGI: > 100 µM
COLO 205 colon
  GI50: 40.5 µM
  TGI: > 100 µM
DU-145 prostate
  GI50: 44.2 µM
  TGI: > 100 µM
EKVX NSCLC
  GI50: 50.4 µM
  TGI: > 100 µM
HCC-2998 colon
  GI50: 24.2 µM
  TGI: 69.6 µM
HCT-116 colon
  GI50: 34.9 µM
  TGI: > 100 µM
HCT-15 colon
  GI50: 39 µM
  TGI: > 100 µM
HL-60(TB) leukemia
  GI50: 37.5 µM
  TGI: > 100 µM
HOP-62 NSCLC
  GI50: 31.8 µM
  TGI: > 100 µM
HOP-92 NSCLC
  GI50: 30.3 µM
  TGI: > 100 µM
HS 578T breast
  GI50: 30.5 µM
  TGI: 88.9 µM
HT29 colon
  GI50: 39.4 µM
  TGI: > 100 µM
IGROV1 ovarian
  GI50: 33.9 µM
  TGI: > 100 µM
K-562 leukemia
  GI50: 40.6 µM
  TGI: > 100 µM
KM12 colon
  GI50: 34.3 µM
  TGI: > 100 µM
LOX IMVI melanoma
  GI50: 40.8 µM
  TGI: > 100 µM
M14 melanoma
  GI50: 42.2 µM
  TGI: > 100 µM
MALME-3M melanoma
  GI50: 18.8 µM
  TGI: 59.6 µM
MCF7 breast
  GI50: 42 µM
  TGI: > 100 µM
MDA-MB-231 breast
  GI50: 27.6 µM
  TGI: > 100 µM
MDA-MB-435
  GI50: 42.7 µM
  TGI: > 100 µM
NCI-H226 lung
  GI50: 34.8 µM
  TGI: > 100 µM
NCI-H23 lung
  GI50: 30.1 µM
  TGI: 79.5 µM
NCI-H460 lung
  GI50: 33.2 µM
  TGI: > 100 µM
NCI-H522 lung
  GI50: 29 µM
  TGI: 82.1 µM
NCI/ADR-RES ovarian
  GI50: 33.7 µM
  TGI: > 100 µM
OVCAR-3 ovarian
  GI50: 28.8 µM
  TGI: > 100 µM
OVCAR-4 ovarian
  GI50: 23.3 µM
  TGI: > 100 µM
OVCAR-5 ovarian
  GI50: 60.2 µM
  TGI: > 100 µM
OVCAR-8 ovarian
  GI50: 40.7 µM
  TGI: > 100 µM
PC-3 prostate
  GI50: 40.9 µM
  TGI: > 100 µM
RPMI-8226 leukemia
  GI50: 43.4 µM
  TGI: > 100 µM
RXF 393 renal
  GI50: 36.6 µM
  TGI: > 100 µM
SF-268 CNS
  GI50: 44 µM
  TGI: > 100 µM
SF-295 CNS
  GI50: 29.5 µM
  TGI: > 100 µM
SF-539 CNS
  GI50: 36.5 µM
  TGI: > 100 µM
SK-MEL-2 melanoma
  GI50: 26.5 µM
  TGI: 87.5 µM
SK-MEL-28 melanoma
  GI50: 85.5 µM
  TGI: > 100 µM
SK-MEL-5 melanoma
  GI50: 31.3 µM
  TGI: > 100 µM
SK-OV-3 ovarian
  GI50: 85.1 µM
  TGI: > 100 µM
SN12C renal
  GI50: 32.1 µM
  TGI: > 100 µM
SNB-19 CNS
  GI50: 47 µM
  TGI: > 100 µM
SNB-75 CNS
  GI50: 86.2 µM
  TGI: > 100 µM
SW-620 colon
  GI50: 40.2 µM
  TGI: > 100 µM
T-47D breast
  GI50: 44.7 µM
  TGI: > 100 µM
TK-10 renal
  GI50: 30.3 µM
  TGI: 98.9 µM
U251 CNS
  GI50: 36.8 µM
  TGI: > 100 µM
UACC-257 melanoma
  GI50: 53.4 µM
  TGI: > 100 µM
UACC-62 melanoma
  GI50: 33.9 µM
  TGI: > 100 µM
UO-31 renal
  GI50: 29.3 µM
  TGI: 79.5 µM
